Laboratory results as given in publication PMC5581131, “The novel sphingosine-1-phosphate receptors antagonist AD2900 affects lymphocyte activation and inhibits T-cell entry into the lymph nodes” (Oncotarget, 2017).

Legend:
C57BL/6J female mice = assay: Leukocyte counts in thymus, blood, spleen and lymph nodes after oral administration in drinking water; format: in vivo, mouse; conditions: 1.8 mg/l in drinking water
Protocol: Next, 7- to 8-week-old C57BL/6J female mice were orally administered with AD2900 mixed in drinking water in different dosages (1.8, 2.7, or 3.6 mg/l) for 2 days (Figure 4A) or 7 days (Figure 4B); FTY720 was used as a positive control. In the 7-day experiment, the water was replaced on Day 3 with fresh water containing the same concentration of analog. At the end of the experiment, blood, spleen, inguinal lymph nodes, and thymus were obtained from each animal and the number of leukocytes was evaluated.
Figure 4 AD2900 treatment alters the distribution of leukocytes in the thymus, blood, spleen, and peripheral lymph nodes in mice C57BL/6 female mice were orally administered with 1.8 mg/l AD2900 in their drinking water for 2 days (A) or 7 days (B), and FTY720 (1.8 mg/l) was used as a positive control. Leukocytes from the thymus, blood, spleen, and peripheral lymph nodes (pLNs) were collected and counted. All the significances are compared to untreated healthy mice. Results summarize four independent experiments in figure (A) and two independent experiments in figure (B). n = 4–7 mice per group in each experiment. Results of Student’s t-test:*(P < 0.05, two-tailed test), ** (P < 0.01, two-tailed test), *** (P < 0.001, two-tailed test), **** (P < 0.0001, two-tailed test).
C57BL/6 female mice aged 7–8 weeks were obtained from Harlan Laboratories (Jerusalem, Israel). The animal study was conducted under appropriate conditions and was approved by the Institutional Animal Care and Use Committee of the Hebrew University of Jerusalem in accordance with the national laws and regulations for the protection of animals. AD2900 was dissolved in 10% BSA (MP Biomedicals, CA, USA) in DDW at 1 mg/ml and then further diluted in 200 ml water to get final concentrations at 1.8, 2.7, or 3.6 mg/l. AD2900 and FTY720 were supplied ad libitum to the mice for 2 days or 7 days. At the end of the experiment, blood was collected, and the mice were sacrificed and tissues (lymph nodes and spleen) were harvested.
Murine blood samples, collected in tubes coated with EDTA (Grelner bio-one, Germany), were counted by a Mindray veterinary hematology Analyzer (Mindray, China). Single cell suspensions of lymph nodes and spleen were made in 1.5 ml of PBS. Cell counts were determined from these suspensions, yielding results in thousands of cells per microliter (μl).

murine splenocytes = assay: Mouse allogeneic MLR with murine splenocytes; format: cell-based; conditions: 1-day pretreatment, 3-day mice MLR; mean of up to, highest concentration
Protocol: Supplementary Figure 4: AD2900 inhibits mice splenocytes proliferation in allogeneic activation in vitro. In vivo- the […]
(A) The levels of proliferative response of mouse splenocytes after one day pretreatment with different concentrations of AD2900 were tested by mouse allogeneic mixed lymphocyte reaction (MLR) assay followed by a [3H] thymidine incorporation analysis. [3H] thymidine was incorporated for at least 16 hours at the 3rd day of the experiment. Significance is compared to untreated mice splenocytes. (B) C57BL/6 mice were orally administered AD2900 or FTY720. Leucocytes from blood, spleen and pLNs were collected and stained with TCR-β, CD62L and CD44 florescent antibodies and then analyzed by FACS analysis. The percent of CD62L+CD44+ (Tcm) like cells out of the total T cell population (TCR-β+) in blood, spleen and pLNs are shown. All the significances are compared to untreated healthy mice. Graphs summarize results of at least three independent experiments. Results of Student’s t test :*( P < 0.05, two-tailed test), ** (P < 0.01, two-tailed test), *** (P < 0.001, two-tailed test), **** (P < 0.0001, two-tailed test).
(also on this page, place not known: www.impactjournals.com/oncotarget/ Oncotarget, Materials 2017 Supplementary) […]

S1P1 expression on PBMCs = assay: S1P1 cell surface expression on PBMCs, FACS; format: cell-based, human
Protocol: Among the S1P receptors, S1P1 is the most widespread receptor in the immune system and is expressed by several cell populations. […] Since AD2900 functions as an antagonist on S1P1, we next checked whether AD2900 affects S1P1 expression on PBMCs; FTY720 and SEW2817 were used as positive controls. The percentage of cells expressing S1P1 on their cell surface was detected by FACS analysis and was calculated as % of expression in non-treated cells. Low doses of AD2900 led to a decreased number of S1P1-expressing PBMCs after a 30-min treatment (Figure 3A and Supplementary Figure 2C). […] The highest effect was obtained at 100 nM with a mean of 51% ± 9% expression as compared to untreated control PBMCs.
Figure 3 AD2900 downregulates the percentage of S1P1- and CCR7-expressing cells in PBMCs (A, B) The percentages of S1P1-positive PBMCs after the treatment with different concentrations of AD2900, FTY720, or SEW2871 and at different time points were examined by FACS analysis. S1P1 expression was tested in PBMCs after a 30-min treatment with AD2900 at different concentrations (A) or after a 30-min or 60-min treatment with 100 nM AD2900, FTY720, or SEW2871 (B). (C) The percentage of CCR7-positive PBMCs was tested by FACS analysis after a 30-min treatment with 100 nM AD2900, FTY720, or SEW2871. All the significances are compared to untreated PBMCs. Results summarize the results of at least four independent experiments. Results of Student’s t-test: *(P < 0.05, two-tailed test), ** (P < 0.01, two-tailed test), *** (P < 0.001, two-tailed test), **** (P < 0.0001, two-tailed test).
Human PBMCs: For the apoptosis test, anti-AnnexinV-FITC (BD Biosciences, CA, USA) was used. To analyze S1P1 surface expression on AD2900-treated PBMCs, the following were used: anti-S1P1 (Alomone labs, Israel), anti-EDG-1 (Abcam, UK), Dylight405-conjugated AffiniPure Goat Anti-Rabbit lgG (H + L), and APC-conjugated AffiniPure F(ab')2 Goat Anti-Rabbit lgG(H + L) (Jackson ImmonoResearch, USA). For CCR7 expression, we used anti-CCR7-APC (Biolegend, CA, USA).

Row | SMILES | increase of splenocyte counts (C57BL/6J female mice; 2-day treatment) | increase of thymus WBC count (C57BL/6J female mice; 2-day treatment) | increase of mice WBC count (C57BL/6J female mice; 7-day treatment) | increase of splenocyte counts (C57BL/6J female mice; 7-day treatment) | reduction of the number of leukocytes in the lymph nodes, of that of the control (C57BL/6J female mice; 7-day treatment) | inhibition of mice T-cell proliferation (murine splenocytes) | effect on S1P1 cell surface expression, 30-min versus 60-min treatment (S1P1 expression on PBMCs; 100 nM) | S1P1 expression as compared to untreated control PBMCs (S1P1 expression on PBMCs; 100 nM, 30-min treatment, highest effect) | S1P1 expression level (S1P1 expression on PBMCs; 4000 nM, 30-min treatment) | concentrations that significantly and dose-dependently decreased S1P1 expression (S1P1 expression on PBMCs; 30-min treatment) | lymph node leukocyte count (C57BL/6J female mice; 2-day and 7-day treatments) | WBC and splenocyte counts (C57BL/6J female mice; both 2-day and 7-day treatments)
1 | CCCCCCCCCCCCCCCCNC(CO)(CO)CO [AD2900] | 33% ± 9% | 25% ± 8.2% | 23% ± 7% | 20% ± 7% | 18% ± 4% | 73% ± 3% | transient and reversed shortly after a 60-min treatment | 51% ± 9% | returned to that of untreated control | 25 to 2000 nM | – | –
2 | CCCCCCCCc1ccc(CCC(N)(CO)CO)cc1 [FTY720, Fingolimod, reference compound] | – | – | – | – | – | – | smaller reduction of S1P1 cell surface expression, but its effect was not reversed after a 60-min treatment | – | – | – | only minor effects | dramatically reduced
